For this series the following is noted: concentration about 10 mg/mL.

From US20050272662A1, “Self-assembled peptide-amphiphiles & self-assembled peptide nanofiber networks presenting multiple signals” (priority 2002, published 2005) come the findings set out here.

Residues, ends and D or L forms follow the SMILES beside them. *: point of attachment. Palmitoyl = CCCCCCCCCCCCCCCC(=O)*

Experimental: The two molecules can be dissolved in pH-adjusted water at a concentration of about 2-30 mg/ml, and preferably about 10 mg/mL.
The molecules were then dissolved in water at a concentration of 10 mg/mL, adjusting the pH to improve solubility. […] In the case of molecule 1, the pH was raised to about pH 8 with 2M and 100 mM KOH, then back-titrated to pH 7.

With `CCCCCCCCCCCCCCCC(=O)N[C@@H](C)C(=O)N[C@@H](C)C(=O)N[C@@H](C)C(=O)N[C@@H](C)C(=O)NCC(=O)NCC(=O)NCC(=O)N[C@@H](CCCCN)C(=O)N[C@@H](Cc1ccc(O)cc1)C(=O)N[C@H](C(=O)NCC(=O)N[C@@H](CO)C(=O)N[C@@H](CCCNC(=N)N)C(N)=O)[C@@H](C)CC` [Molecule 2] (Palmitoyl-AAAAGGGKYIGSR-NH2), the “appearance of solution in pH-adjusted water” value was “translucent”.
